Test results published in patent US10851067B2, “Kv7 channel activators compositions and methods of use” (Knopp Biosciences LLC, priority 2018, dated 2020).

The compounds below were run against Kv7.2/7.3 (Homo sapiens, UniProt O43525+O43526) (assay: Kv7.2/7.3 Activation Assay, QPatch single concentration screen). Conditions: Kv7.2/Kv7.3 co-expressing HEK cells, compound concentration 3 μM, steady-state current at end of 2 s pulse to −30 mV.
Assay type: cell-based
Design: host or cells: HEK cells, tetracycline-inducible expression; key: 1.2-2.9 (+); 3-3.9 (++); >4 (+++) fold increase over baseline; O represents open channel at holding potential
Procedure: Kv7.2/7.3 Activation Assay
The ability of compounds to potentiate K-currents in Kv7.2/7.3 containing HEK cells was assessed using planar patch-clamp on the QPatch automated screening platform.
The hKv7.2/7.3 cell line was obtained from Chantest (Cleveland, Ohio 44128) cat. #CT6147. These HEK cells will express the Kv7.2/7.3 ion channels when induced.
Cells were maintained in a media containing DMEM/F12; 50/50 (GIBCO cat. #11330), 10% Fetal Bovine Serum (FBS) (GIBCO cat. #26140), 100 units/mL Penicillin-Streptomycin (GIBCO cat. #15140), 0.005 mg/mL Blasticidin (INVIVOGEN cat. #ant-b1-1), 0.5 mg/mL Geneticin (GIBCO cat. #10131), 0.1 mg/mL Zeocin (GIBCO cat. #R25001). Cells used in the electrophysiology assay were maintained in a media without Blasticidin, Geneticin and Zeocin for 2 days and channel expression was induced by adding tetracycline (BIOLINE cat. #BIO-87030) at a final concentration of 1 mg/mL. Cells were grown in T-175 flask to ˜75% confluency. Currents were recorded 24 hours after channel induction.
Test compounds were prepared by performing serial dilutions on a Biomek NX^P (BECKMAN COULTER). Final dilutions were made in external recording solution with a final DMSO concentration of 0.1% DMSO. For single concentration screens each plate had 10 μM retigabine as a positive control and 0.1% DMSO as a negative control.
On the day of the experiment cells were washed with Hank's Balanced Salt Solution (HBBS) (GIBCO cat. #14175) and harvested with Tryple (GIBCO cat. #12604). Cells were then centrifuged at 2000 rpm for 5 minutes and resuspended in CHO-S-SFM (GIBCO cat. #12052) at ˜3×10^6 cells/mL. Cells were stirred for 30 minutes before experiments were started. External recording solution contained (in mM): NaCl (145), KCl (4), CaCl2 (2), MgCl2 (1), HEPES (10) and Glucose (10); pH was adjusted to 7.4 with NaOH and the osmolarity was adjusted to 300-305 mOsM with sucrose if necessary. Internal solution contained (in mM): KCl (125), KF (10), EGTA (5), Na2ATP (5), MgCl2 (3.2), HEPES (5); pH was adjusted to 7.2 with KOH and the osmolarity was adjusted to 298-302 mOsM with sucrose.
Potassium channel activity was measured on the QPatch HTX (Sophion Bioscience) using QPlates with 48-wells/plate. Each cell was taken as an independent experiment and only one compound was tested per well. Potassium channel activity was elicited by holding at −80 mV and stepping to −30 mV for 2 s followed by a 100 ms pulse to −120 mV.
Single Concentration Screen:
Baseline conditions were obtained by recording 5 sweeps in the external solution only, this was repeated for three applications of the external solution. The effect of test compounds on elicited current was then assessed by recording 5 sweeps in the presence of a 3 μM compound solution. The steady-state current at the end of the 2 s pulse to −30 mV was measured to determine the fold increase from baseline.

| Structure (SMILES) | Kv7.2/7.3 Activity: increase over baseline in current |
| --- | --- |
| CC(O)(CC(=O)Nc1nc2ccc(OC(F)F)cc2n1C1CCC1)c1ccccc1 (single isomer, unassigned) [Example 422, N-(1-cyclobutyl-6-(difluoromethoxy)-1H-benzo[d]imidazol-2-yl)-3-hydroxy-3-phenylbutanamide] | + (1.2-2.9 (+)) |
| CC(O)(CC(=O)Nc1nc2ccc(C#N)cc2n1CC1CC1)c1ccccc1 (single isomer, unassigned) [Example 428, N-(6-cyano-1-(cyclopropylmethyl)-1H-benzo[d]imidazol-2-yl)-3-hydroxy-3-phenylbutanamide] | ++ (3-3.9 (++)) |
| CC(O)(CC(=O)Nc1nc2ccc(C#N)cc2n1C1(C)CCC1)c1ccc(F)cc1F (single isomer, unassigned) [Example 430, N-(6-cyano-1-(1-methylcyclobutyl)-1H-benzo[d]imidazol-2-yl)-3-(2,4-difluorophenyl)-3-hydroxybutanamide] | ++ (3-3.9 (++)) |
| CC(O)(CC(=O)Nc1nc2cc(F)cc(C#N)c2n1C1(C)CCC1)c1ccccc1 (single isomer, unassigned) [Example 441, N-(7-cyano-5-fluoro-1-(1-methylcyclobutyl)-1H-benzo[d]imidazol-2-yl)-3-hydroxy-3-phenylbutanamide] | ++ (3-3.9 (++)) |
| CN(C)c1ccc2nc(NC(=O)CC(C)(O)c3ccccc3)n(C3CCC3)c2c1F (single isomer, unassigned) [Example 485, N-(1-cyclobutyl-6-(dimethylamino)-7-fluoro-1H-benzo[d]imidazol-2-yl)-3-hydroxy-3-phenylbutanamide] | +++ (>4 (+++) fold increase over baseline) |
| CC(C)(C)CC(=O)Nc1nc2c(F)cc(OC(F)F)cc2n1C1CCC1 [Example 331, N-(1-cyclobutyl-6-(difluoromethoxy)-4-fluoro-1H-benzo[d]imidazol-2-yl)-3,3-dimethylbutanamide] | +++ (>4 (+++) fold increase over baseline) |
| CC(C)(C)CC(=O)Nc1nc2ccc(C(C)(C)O)cc2n1C1CC(F)(F)C1 [Example 332, N-(1-(3,3-difluorocyclobutyl)-6-(2-hydroxypropan-2-yl)-1H-benzo[d]imidazol-2-yl)-3,3-dimethylbutanamide] | + (1.2-2.9 (+)) |
| CC(C)(CC(=O)Nc1nc2ccc(C#N)cc2n1C(C)(C)C(F)(F)F)C1CC1 [Example 333, N-(6-cyano-1-(1,1,1-trifluoro-2-methylpropan-2-yl)-1H-benzo[d]imidazol-2-yl)-3-cyclopropyl-3-methylbutanamide] | ++ (3-3.9 (++)) |
| CC(C)(C)CC(=O)Nc1nc2ccc(OCC(F)(F)F)c(F)c2n1C1CCC1 [Example 334, N-(1-cyclobutyl-7-fluoro-6-(2,2,2-trifluoroethoxy)-1H-benzo[d]imidazol-2-yl)-3,3-dimethylbutanamide] | ++ (3-3.9 (++)) |
| C[C@H](CC(=O)Nc1nc2ccc(C(C)(C)O)cc2n1C1CCC1)c1ccccc1 [Example 336, (R)-N-(1-cyclobutyl-6-(2-hydroxypropan-2-yl)-1H-benzo[d]imidazol-2-yl)-3-phenylbutanamide] | + (1.2-2.9 (+)) |
| CC(C)(C)CC(=O)Nc1nc2ccc(C#N)cc2n1C1(C)CCC1 [Example 337, N-(6-cyano-1-(1-methylcyclobutyl)-1H-benzo[d]imidazol-2-yl)-3,3-dimethylbutanamide] | ++ (3-3.9 (++)) |

Second part, the compound after the results:

| Kv7.2/7.3 Activity: increase over baseline in current | Structure (SMILES) |
| --- | --- |
| + (1.2-2.9 (+)) | COc1cccc2nc(NC(=O)CC(C)(O)c3ccccc3)n(C3CCC3)c12 (single isomer, unassigned) [Example 442, N-(1-cyclobutyl-7-methoxy-1H-benzo[d]imidazol-2-yl)-3-hydroxy-3-phenylbutanamide] |
| ++ (3-3.9 (++)) | CC(C)(O)c1ccc2nc(NC(=O)CC3CC(F)(F)C3(F)F)n(C3CCC3)c2c1 (single isomer, unassigned) [Example 446, N-(1-cyclobutyl-6-(2-hydroxypropan-2-yl)-1H-benzo[d]imidazol-2-yl)-2-(2,2,3,3-tetrafluorocyclobutyl)acetamide] |
| O | CC(O)(CC(=O)Nc1nc2ccc(C#N)cc2n1C1CCC1)c1ccccc1F (single isomer, unassigned) [Example 452, N-(6-cyano-1-cyclobutyl-1H-benzo[d]imidazol-2-yl)-3-(2-fluorophenyl)-3-hydroxybutanamide] |
| ++ (3-3.9 (++)) | CC(O)(CC(=O)Nc1nc2ccc(C#N)cc2n1C1(C)CCC1)c1ccc(F)cc1F (single isomer, unassigned) [Example 460, N-(6-cyano-1-(1-methylcyclobutyl)-1H-benzo[d]imidazol-2-yl)-3-(2,4-difluorophenyl)-3-hydroxybutanamide] |
| + (1.2-2.9 (+)) | CC(O)(CC(=O)Nc1nc2ccc(OC(F)F)cc2n1C1(C)CCC1)c1ccccc1 (single isomer, unassigned) [Example 463, N-(6-(difluoromethoxy)-1-(1 - methylcyclobutyl)-1H-benzo[d]imidazol-2-yl)-3-hydroxy-3-phenylbutanamide] |
| ++ (3-3.9 (++)) | CC(O)(CC(=O)Nc1nc2cc(F)cc(C#N)c2n1C1(C)CCC1)c1ccccc1 (single isomer, unassigned) [Example 465, N-(7-cyano-5-fluoro-1-(1-methylcyclobutyl)-1H-benzo[d]imidazol-2-yl)-3-hydroxy-3-phenylbutanamide] |
| ++ (3-3.9 (++)) | CC(C)(O)c1cc(F)c2nc(NC(=O)CC3CC(F)(F)C3(F)F)n(C3CCC3)c2c1 (single isomer, unassigned) [Example 466, N-(1-cyclobutyl-4-fluoro-6-(2-hydroxypropan-2-yl)-1H-benzo[d]imidazol-2-yl)-2-(2,2,3,3-tetrafluorocyclobutyl)acetamide] |
| + (1.2-2.9 (+)) | CC(O)(CC(=O)Nc1nc2ccc(C#N)cc2n1C1(C)CCC1)c1c(F)cccc1F (single isomer, unassigned) [Example 467, N-(6-cyano-1-(1-methylcyclobutyl)-1H-benzo[d]imidazol-2-yl)-3-(2,6-difluorophenyl)-3-hydroxybutanamide] |
| + (1.2-2.9 (+)) | CC(O)(CC(=O)Nc1nc2cccc(C#N)c2n1C1(C)CCC1)c1ccccc1 (single isomer, unassigned) [Example 468, N-(7-cyano-1-(1-methylcyclobutyl)-1H-benzo[d]imidazol-2-yl)-3-hydroxy-3-phenylbutanamide] |
| + (1.2-2.9 (+)) | CC1(Cn2c(NC(=O)CC(C)(O)c3ccccc3)nc3ccc(C#N)cc32)CC1 (single isomer, unassigned) [Example 471, N-(6-cyano-1-((1-methylcyclopropyl)methyl)-1H-benzo[d]imidazol-2-yl)-3-hydroxy-3-phenylbutanamide] |
| + (1.2-2.9 (+)) | CC(O)(CC(=O)Nc1nc2cc(F)c(C#N)cc2n1C1(C)CCC1)c1ccccc1F (single isomer, unassigned) [Example 478, N-(6-cyano-5-fluoro-1-(1-methylcyclobutyl)-1H-benzo[d]imidazol-2-yl)-3-(2-fluorophenyl)-3-hydroxybutanamide] |
| ++ (3-3.9 (++)) | CC(O)(CC(=O)Nc1nc2ccc(C#N)cc2n1CC(F)(F)F)c1ccccc1F (single isomer, unassigned) [Example 483, N-(6-cyano-1-(2,2,2-trifluoroethyl)-1H-benzo[d]imidazol-2-yl)-3-(2-fluorophenyl)-3-hydroxybutanamide] |
